In patent publication US7999001B2 (priority 2007, dated 2011):
“Also recorded” adds a separate entry of the source. Read-outs that look alike come from different tables or passages of the source.

Columns and labels:
[1] = system: EBOV-GFP (recombinant Ebola Zaire virus expressing green fluorescence protein); assay: microbe, parasite or virus in culture; type: cell-based; details: for inhibition at 20 µM: Zaire ebolavirus, Vero C1008, 48 h, read-out: EBOV % Inhibition (20 μM)
EBOV-GFP = assay: microbe, parasite or virus in culture; type: cell-based, Ebola Zaire virus; details: for IC50: Zaire ebolavirus, Vero C1008, read-out: IC50 (read from graphs of % of control infection)
[2] = system: MPXV-GFP (recombinant monkeypox virus expressing GFP, Zaire strain); assay: microbe, parasite or virus in culture; type: cell-based; details: Vero C1008, in Primates, 48 h, read-out: Monkey Pox % Inhibition (20 μM)
[3] = system: Rift Valley Fever Virus (ZH501 strain); type: cell-based
[4] = system: influenza virus (H1N1 A/Texas strain); type: cell-based
[5] = system: Lassa virus (Josiah strain); type: cell-based

Row | SMILES | inhibition at 20 µM [1] [%] | inhibition at 20 µM [2] [%] | also measured
1 | CCN(CC)CCCNc1nc(C)cc(Nc2ccc3nc(C)cc(N)c3c2)n1 [NSC 23767, N^6-(2-((3-(diethylamino)propyl)amino)-6-methyl-4-pyrimidinyl)-2-methyl-4,6-quinolinediamine] | 74.1 |  | 
2 | O=C1C(SCCO)=C(SCCO)C(=O)c2ccccc21 [NSC 95397, 2,3-bis((2-hydroxyethyl)thio)naphthoquinone] |  |  | EBOV % Inhibition (20 μM) [1]: 75.3%
3 | CC(=O)NC1=C(Sc2ccc(Cl)cc2)C(=O)c2ccccc2C1=O [NSC 128981, N-(3-((4-chlorophenyl)thio)-1,4-dioxo-1,4-dihydro-2-naphthalenyl)acetamide] | 97.7 |  | IC50 (EBOV-GFP): ~15 µM
4 | N=C(N)c1ccc(-c2cc3ccc(C(=N)N)cc3s2)cc1 [NSC 240890, 2-(4-carbamimidoylphenyl)benzothiophene-6-carboximidamide; 2-hydroxypropanoic acid] | 54.9 | 46.7 | 
5 | N=C(N)c1ccc(-c2cc3cc(C(=N)N)ccc3s2)cc1 [NSC 240891, 2-(4-carbamimidoylphenyl)benzothiophene-5-carboximidamide] | 40.3 | 99.4 | 
6 | N=C(N)c1ccc(-c2nc3ccc(C(=N)N)cc3[nH]2)cc1 [NSC 240894, 2-(4-carbamimidoylphenyl)-3H-benzoimidazole-5-carboximidamide] |  | 89.7 | 
7 | N=C(N)c1ccc(-n2cc3cc(C(=N)N)ccc3n2)cc1 [NSC 240895, 2-(4-carbamimidoylphenyl)indazole-5-carboximidamide] | 32.2 | 99.7 | 
8 | N=C(N)c1ccc(Oc2ccc(-c3cc4ccc(C(=N)N)cc4[nH]3)cc2)cc1 [NSC 240898, 2-[4-(4-carbamimidoylphenoxy)phenyl]-1H-indole-6-carboximidamide] |  | 98.1 | 
9 | N=C(N)c1ccc(-c2cc(-c3ccc(C(=N)N)cc3)on2)cc1 [NSC 240900, 4-[3-(4-carbamimidoylphenyl)oxazol-5-yl]benzenecarboximidamide] |  | 79.9 | 
10 | Cc1c2ccncc2c(C)c2c1[nH]c1ccc(O)cc12 [NSC 264136, 5,11-dimethyl-6H-pyrido[4,3-b]carbazol-9-ol] | 63.1 |  | 
11 | N=C(N)c1ccc2oc(/C=C/c3cc4cc(C(=N)N)ccc4s3)cc2c1 [NSC 266472, 2-[(E)-2-(5-carbamimidoylbenzothiophen-2-yl)ethenyl]benzofuran-5-carboximidamide] | 67.5 |  | 
12 | c1cc(-c2cc3ccc(C4=NCCN4)cc3[nH]2)ccc1C1=NCCN1 [NSC 278995, 6-(4,5-dihydro-1H-imidazol-2-yl)-2-[4-(4,5-dihydro-1H-imidazol-2-yl)phenyl]-1H-indole] |  | 99.3 | 
13 | C(=C\c1cc2cc(C3=NCCN3)ccc2o1)/c1cc2cc(C3=NCCN3)ccc2o1 [NSC 278999, 2-[2-[(E)-2-[5-(4,5-dihydro-1H-imidazol-2-yl)benzofuran-2-yl]ethenyl]benzofuran-5-yl]-4,5-dihydro-1H-imidazole] | 55.6 |  | 
14 | N=C(N)c1ccc2[nH]c(/C=C/c3cc4cc(C(=N)N)ccc4o3)cc2c1 [NSC 290107, 2-[(E)-2-(5-carbamimidoylbenzofuran-2-yl)ethenyl]-1H-indole-5-carboximidamide] | 33.6 |  | 
15 | C(=C\c1cc2cc(C3=NCCN3)ccc2o1)/c1cc2cc(C3=NCCN3)ccc2[nH]1 [NSC 290108, 5-(4,5-dihydro-1H-imidazol-2-yl)-2-[(E)-2-[5-(4,5-dihydro-1H-imidazol-2-yl)benzofuran-2-yl]ethenyl]-1H-indole] | 45 | 45.1 | 
16 | O=C(Nc1ccc(C2=NCCN2)cc1)c1cc2cc(C3=NCCN3)ccc2o1 [NSC 290111, 5-(4,5-dihydro-1H-imidazol-2-yl)-N-[4-(4,5-dihydro-1H-imidazol-2-yl)phenyl]benzofuran-2-carboxamide] | 40 |  | 
17 | N=C(N)c1ccc2cc(/C=C/c3cc4ccc(C(=N)N)cc4o3)oc2c1 [NSC 294199, 2-[(E)-2-(6-carbamimidoylbenzofuran-2-yl)ethenyl]benzofuran-6-carboximidamide] | 68.8 | 40.9 | 

Row | SMILES | inhibition at 20 µM [1] [%] | inhibition at 20 µM [2] [%] | also measured
18 | N=C(N)c1ccc2oc(/C=C/c3cc4ccc(C(=N)N)cc4o3)cc2c1 [NSC 294202, 2-[(E)-2-(5-carbamimidoylbenzofuran-2-yl)ethenyl]benzofuran-6-carboximidamide] | 71.2 |  | dose dependent antiviral activity toward EBOV-GFP (EBOV-GFP): dose dependent antiviral activity; IC50 (EBOV-GFP): ~6 µM; antiviral activity toward RVFV [3]: showed antiviral activity; antiviral activity toward influenza virus [4]: showed antiviral activity; inhibition of influenza virus replication [4]: more than one log; also recorded: inhibit the replication; antiviral activity toward LV (Lassa virus) [5]: showed antiviral activity
19 | O=C(Nc1ccc(C2=NCCN2)cc1)c1cc2ccc(C3=NCCN3)cc2[nH]1 [NSC 294206, 6-(4,5-dihydro-1H-imidazol-2-yl)-N-[4-(4,5-dihydro-1H-imidazol-2-yl)phenyl]-1H-indole-2-carboxamide] | 61.5 | 86 | dose dependent antiviral activity toward EBOV-GFP (EBOV-GFP): dose dependent antiviral activity
20 | O=C(Nc1ccc(C2=NCCN2)cc1)c1cc2ccc(C3=NCCN3)cc2o1 [NSC 294208, 6-(4,5-dihydro-1H-imidazol-2-yl)-N-[4-(4,5-dihydro-1H-imidazol-2-yl)phenyl]benzofuran-2-carboxamide] | 38.8 |  | 
21 | N=C(N)c1ccc(-c2[nH]c3cc(C(=N)N)ccc3c2N)cc1 [NSC 300509, 3-amino-2-(4-carbamimidoylphenyl)-1H-indole-6-carboximidamide] |  | 84.9 | 
22 | N=C(N)c1ccc(-c2ccc(-c3ccc(C(=N)N)cc3)s2)cc1 [NSC 300510, 4-[5-(4-carbamimidoylphenyl)thiophen-2-yl]benzenecarboximidamide] | 59.7 | 89.9 | dose dependent antiviral activity toward EBOV-GFP (EBOV-GFP): dose dependent antiviral activity
23 | N=C(N)c1ccc2oc(/C=C/C=C/c3cc4cc(C(=N)N)ccc4o3)cc2c1 [NSC 300511, 2-[(1E,3E)-4-(5-carbamimidoylbenzofuran-2-yl)buta-1,3-dienyl]benzofuran-5-carboximidamide] | 49.2 |  | 
24 | c1cc(-c2cc3cc(C4=NCCN4)ccc3s2)ccc1C1=NCCN1 [NSC 308569, 2-[2-[4-(4,5-dihydro-1H-imidazol-2-yl)phenyl]benzothiophen-5-yl]-4,5-dihydro-1H-imidazole] | 35.3 | 95.8 | 
25 | C(=C\c1cc2cc(C3=NCCN3)ccc2o1)/c1ccc(C2=NCCN2)cc1 [NSC 308570, 2-[2-[(E)-2-[4-(4,5-dihydro-1H-imidazol-2-yl)phenyl]ethenyl]benzofuran-5-yl]-4,5-dihydro-1H-imidazole] | 30.7 |  | 
26 | C(/C=C/c1cc2cc(C3=NCCN3)ccc2o1)=C\c1cc2cc(C3=NCCN3)ccc2o1 [NSC 308571, 2-[2-[(1E,3E)-4-[5-(4,5-dihydro-1H-imidazol-2-yl)benzofuran-2-yl]buta-1,3-dienyl]benzofuran-5-yl]-4,5-dihydro-1H-imidazole] | 61.2 |  | 
27 | N=C(N)c1ccc(/C=C/C=C/c2cc3cc(C(=N)N)ccc3o2)cc1 [NSC 308572, 2-[(1E,3E)-4-(4-carbamimidoylphenyl)buta-1,3-dienyl]benzofuran-5-carboximidamide] | 32.8 |  | 
28 | C(/C=C/c1cc2cc(C3=NCCN3)ccc2o1)=C\c1ccc(C2=NCCN2)cc1 [NSC 308573, 2-[2-[(1E,3E)-4-[4-(4,5-dihydro-1H-imidazol-2-yl)phenyl]buta-1,3-dienyl]benzofuran-5-yl]-4,5-dihydro-1H-imidazole] | 54.2 |  | 
29 | c1cc2cc(-c3cc4ccc(C5=NCCN5)cc4[nH]3)[nH]c2cc1C1=NCCN1 [NSC 330688, 6-(4,5-dihydro-1H-imidazol-2-yl)-2-[6-(4,5-dihydro-1H-imidazol-2-yl)-1H-indol-2-yl]-1H-indole] | 51.3 | 84.9 | 
30 | N=C(N)c1ccc2c(c1)=NC(=C(N)N)C=2 [NSC 330689, 2-(diaminomethylidene)indole-6-carboximidamide] |  | 89.9 | 
31 | NC(N)=NN=Cc1ccc2cc(-c3ccc(/C=N/N=C(N)N)cc3)sc2c1 [NSC 341909, 2-[[2-[4-[(E)-(diaminomethylidenehydrazinylidene)methyl]phenyl]benzothiophen-6-yl]methylideneamino]guanidine] | 57.5 | 95.8 | 
32 | c1cc(-c2[nH]c3cc(C4=NCCN4)ccc3c2-c2cc3ccc(C4=NCCN4)cc3[nH]2)ccc1C1=NCCN1 [NSC 341911, 6-(4,5-dihydro-1H-imidazol-2-yl)-3-[6-(4,5-dihydro-1H-imidazol-2-yl)-1H-indol-2-yl]-2-[4-(4,5-dihydro-1H-imidazol-2-yl)phenyl]-1H-indole] | 33.2 |  | 
33 | c1cc(-c2[nH]c3cc(C4=NCCN4)ccc3c2-c2cc3ccc(C4=NCCN4)cc3[nH]2)ccc1C1=NCCN1 [NSC 352341, 6-(4,5-dihydro-1H-imidazol-2-yl)-3-[6-(4,5-dihydro-1H imidazol-2-yl)-1H-indol-2-yl]-2-[4-(4,5-dihydro-1H-imidazol-2-yl)phenyl]-1H-indole] |  |  | EBOV % Inhibition (20 μM) ([1]; 20 µM): 41.2%
34 | Nc1ccc(-c2cc3ccc(C4=NCCN4)cc3[nH]2)cc1 [NSC 369715, 4-(6-(4,5-dihydro-1H-imidazol-2-yl)-1H-indol-2-yl)phenylamine] | 56.8 |  | 
